Consider 57 molecules from patent US20100081679A1, “DIAMINOPYRIMIDINES AS FUNGICIDES” (Bayer CropScience AG, priority 2007, published 2010).

Structures are written as SMILES. Marks after values point to notes of the source that are not given here.

This series can be described thus: logP determination via retention times, calibrated with unbranched alkan-2-ones. The following applies: for chromatographic logP: pH 2.3, read-out: logP (pH2.3). The class given is physicochemical.
Setting [1] is: method *: HPLC reversed-phase C18, 40° C., 0.1% aqueous formic acid and acetonitrile, linear gradient 10% to 95% acetonitrile.
Setting [2] is: method *: HPLC reversed-phase C 18, temperature 40° C., mobile phase 0.1% aqueous formic acid and acetonitrile, linear gradient 10% to 95% acetonitrile.
The mark [3] stands for this setting: HPLC on reversed-phase C18, method *: 40° C., 0.1% aqueous formic acid and acetonitrile, linear gradient 10% to 95% acetonitrile.
The mark [4] stands for this setting: method **: HPLC reversed-phase C 18, 43° C., 0.1% aqueous phosphoric acid and acetonitrile, linear gradient 10% to 95% acetonitrile.
Setting [5] is: method *: HPLC, reversed-phase C 18, 40° C., mobile phase 0.1% aqueous formic acid and acetonitrile, linear gradient from 10% to 95% acetonitrile.
Setting [6] is: HPLC on reversed-phase C 18, EEC Directive 79/831 Annex V.A8, method *: 40° C., 0.1% aqueous formic acid and acetonitrile, linear gradient 10% to 95% acetonitrile.
Where [7] appears, read: HPLC on reversed-phase C18, method *: 40° C., mobile phase 0.1% aqueous formic acid and acetonitrile, linear gradient 10% to 95% acetonitrile.
The mark [8] stands for this setting: method **: HPLC reversed-phase C 18, temperature 43° C., mobile phase 0.1% aqueous phosphoric acid and acetonitrile, linear gradient 10% to 95% acetonitrile.
[9] abbreviates: HPLC on reversed-phase C18 column (EEC Directive 79/831 Annex V.A8), method *: 40° C., 0.1% aqueous formic acid and acetonitrile, linear gradient 10% to 95% acetonitrile.
The mark [10] stands for this setting: HPLC reversed-phase C 18, EEC Directive 79/831 Annex V.A8, method *: 40° C., 0.1% aqueous formic acid and acetonitrile, linear gradient 10% to 95% acetonitrile.

On to `CC(=O)Nc1ccc(Nc2ncc(Br)c(NC3CC3)n2)cc1Cl` [compound 379], for which the logP under setting [1] was 1.64*.
In the case of `CN(C)S(=O)(=O)c1ccc(Nc2ncc(C(F)(F)F)c(NC3CC3)n2)cc1` [compound 645], under setting [2], the logP was 2.84*.
`Oc1ccc(Nc2ncc(Br)c(NC3CC3)n2)cc1F` [compound 764]: the logP under setting [3] is on record as 1.41*.
On the same count and under the same terms, the result for `FC(F)(F)c1cccc(Nc2ncc(Cl)c(NC3CC3)n2)c1` [compound 950] reads 3.03*.
Turning to `CN1CCN(c2cccc(Nc3ncc(Br)c(NC4CC4)n3)c2)C1=O` [compound 570], under setting [2], the logP is 1.58*.
With `CC(C)C(=O)Nc1cccc(Nc2ncc(Br)c(NCC3CC3)n2)c1` [compound 460], the logP under setting [1] is 1.85*.
Take `CN(C=O)c1ccc(Nc2ncc(Cl)c(NC3CC3)n2)cc1` [compound 978]: under setting [3], the logP is 1.44*.
On to `NS(=O)(=O)c1ccc(Nc2ncc(Cl)c(NC3CC3)n2)cc1` [compound 25], for which the logP under setting [4] was 1.37**.
Take `N#Cc1ccc(Nc2ncc(Cl)c(NC3CC3)n2)cc1` [compound 374]: under setting [1], the logP is recorded as 2.33*.
On the same count and under the same terms, as for `N#Cc1cnc(Nc2ccccc2)nc1NC1CC1` [compound 40], the figure is 2.44*.
With `OCc1cc(Nc2ncc(Cl)c(NC3CC3)n2)ccc1F` [compound 1047], the logP under setting [5] is 1.25*.
For `O=C(c1cccc(Nc2ncc(Cl)c(NC3CC3)n2)c1)N1CCOCC1` [compound 735], under setting [3], the logP is 1.33*.
In the case of `O=C(Nc1cccc(Nc2ncc(Br)c(NCC3CC3)n2)c1)c1ccccc1` [compound 492], under setting [6], the logP is recorded as 2.29*.
In the case of `FC(F)(F)Oc1ccc(Nc2ncc(Cl)c(NCC3CC3)n2)cc1` [compound 688], the logP under setting [3] is 2.95*.
As to `CC(C)COc1cccc(Nc2ncc(Cl)c(NC3CC3)n2)c1` [compound 444], the logP under setting [1] is recorded as 3.17*.
Regarding `CC(C)(C)C(=O)Nc1ccc(Nc2ncc(Br)c(NC3CC3)n2)cc1` [compound 347], the logP under setting [7] was 1.83*.
Turning to `COC(=O)Nc1cccc(Nc2ncc(C(F)(F)F)c(NC3CC3)n2)c1` [compound 660], the logP is 2.06** under setting [8] and 2.16*; under setting [2].
With `COc1cc(Nc2ncc(Cl)c(NC3CC3)n2)ccc1Cl` [compound 256], the logP under setting [9] is listed as 2.53*.
For the molecule `CCC(C)c1ccccc1Nc1ncc(Cl)c(NC2CC2)n1` (stereo not drawn) [compound 907], under setting [3], the logP is on record as 2.11*.
`CN1CC(=O)N(c2ccc(Nc3ncc(Cl)c(NCC4CC4)n3)cc2)C1=O` [compound 523]: under setting [6], the logP is recorded as 1.53*.
Take `CS(=O)(=O)c1cccc(Nc2ncc(Cl)c(NC3CC3)n2)c1` [compound 252]: under setting [9], the logP was 1.63*.
Turning to `Clc1ncc(Br)c(NCC2CC2)n1` [5-bromo-2-chloro-N-(cyclopropylmethyl)pyrimidine-4-amine], the chromatographic logP was 2.69.
`CS(=O)(=O)Cc1cccc(Nc2ncc(Cl)c(NC3CC3)n2)c1` [compound 243]: the logP under setting [9] is recorded as 1.46*.
For the molecule `COC(=O)Cc1cccc(Nc2ncc(Cl)c(NC3CC3)n2)c1` [compound 290], the logP under setting [7] is given as 1.73*.
As to `COCC(C)NC(=O)c1cccc(Nc2ncc(Cl)c(NC3CC3)n2)c1` (stereo not drawn) [compound 796], the logP under setting [10] was 1.47*.
As to `CC(=O)Nc1cc(Nc2ncc(Cl)c(NCC3CC3)n2)ccc1O` [compound 552], the logP under setting [6] is on record as 1.29*.
On to `CSc1ccccc1Nc1ncc(Cl)c(NC2CC2)n1` [compound 880], for which, under setting [3], the logP is 2.18*.
Same read-out and setting: the result for `O=CNc1cccc(Nc2ncc(Br)c(NC3CC3)n2)c1` [compound 716] reads 1.23*.
In the case of `CNC(=O)Nc1cccc(Nc2ncc(F)c(NC3CC3)n2)c1` [compound 597], the logP under setting [2] is reported as 1.28*.
In the case of `COCC(C)Oc1ccc(Nc2ncc(Cl)c(NC3CC3)n2)cc1` (stereo not drawn) [compound 188], the logP under setting [9] is given as 1.73*.
As to `CC1COC(=O)N1c1cccc(Nc2ncc(F)c(NC3CC3)n2)c1` (stereo not drawn) [compound 802], the logP under setting [10] was 1.18*.
`CCN(CC)C(=O)c1ccc(Nc2ncc(Cl)c(NC3CC3)n2)cc1` [compound 984]: the logP under setting [5] is recorded as 1.84*.
With `COc1cccc(Nc2ncc(F)c(NC3CC3)n2)c1` [compound 573], the logP under setting [2] is reported as 1.51*.
Turning to `CCCCNS(=O)(=O)c1ccc(Nc2ncc(Cl)c(NCC3CC3)n2)cc1` [compound 23], the logP under setting [4] is given as 2.75**.
For the molecule `CCCS(=O)(=O)c1cccc(Nc2ncc(Cl)c(NC3CC3)n2)c1` [compound 852], the logP under setting [10] was 2.25*.
In the case of `CCC(=O)c1ccc(Nc2ncc(Br)c(NC3CC3)n2)cc1` [compound 356], the logP under setting [7] is given as 2.68*.
`Ic1cnc(Nc2ccccc2)nc1NC1CC1` [N^4-Cyclopropyl-5-iodo-N^2-phenylpyrimidine-2,4-diamine]: the chromatographic logP stood at 1.82.
For the molecule `Cc1cnc(Nc2cccc(Cl)c2)nc1NC1CC1` [compound 57], under setting [1], the logP is 1.8*.
Still for that read-out and setting: the result for `COc1cc(Nc2ncc(Cl)c(NC3CC3)n2)cc(OC)c1OC` [Example 4] reads 1.73*.
In the case of `FC(F)C(F)(F)Oc1ccc(Nc2ncc(Cl)c(NC3CC3)n2)cc1` [compound 108], under setting [3], the logP is listed as 2.65*.
`CC(C)(C)OC(=O)Nc1cccc(Nc2ncc(Cl)c(NC3CC3)n2)c1` [compound 330]: the logP under setting [7] is on record as 2.27*.
For the molecule `CC(=O)N(c1ccc(Nc2ncc(Cl)c(NC3CC3)n2)cc1)C1CC1` [Example 63], the logP under setting [1] is 1.62*.
For the molecule `COC(=O)c1ccc(Nc2ncc(C(F)(F)F)c(NC3CC3)n2)cc1` [compound 971], the logP under setting [3] is on record as 3.21*.
For `CN(C)S(=O)(=O)c1ccc(Nc2ncc(F)c(NC3CC3)n2)cc1` [compound 578], the logP under setting [2] is listed as 1.68*.
Turning to `Brc1ccc(Nc2ncc(Br)c(NCC3CC3)n2)cc1` [compound 472], the logP under setting [6] is 2.84*.
In the case of `O=c1ccccn1-c1cccc(Nc2ncc(Br)c(NC3CC3)n2)c1` [compound 833], the logP by setting is: (HPLC reversed-phase C 18, EEC Directive 79/831 Annex V.A8, method **: 43° C., 0.1% aqueous phosphoric acid and acetonitrile, linear gradient 10% to 95% acetonitrile) 1.46**; under setting [10], 1.46*;.
As for `FC(F)Sc1ccc(Nc2ncc(Cl)c(NCC3CC3)n2)cc1` [compound 559], under setting [6], the logP is 2.91*.
Regarding `Brc1cnc(Nc2ccc3c(c2)OCO3)nc1NC1CC1` [compound 752], under setting [3], the logP is 1.66*.
Still for that read-out and setting: as for `Clc1cc(Cl)cc(Nc2ncc(Cl)c(NCC3CC3)n2)c1` [compound 690], the figure is 4.3*.
Take `FC1(F)Oc2ccc(Nc3ncc(Cl)c(NC4CC4)n3)cc2OC1(F)F` [compound 289]: the logP under setting [7] was 3.76*.
Take `O=C1CCCc2ccc(Nc3ncc(Cl)c(NC4CC4)n3)cc2N1` [compound 181]: under setting [9], the logP is reported as 1.41*.
On to `COc1cccc(Nc2ncc(C(F)(F)F)c(NC3CC3)n2)c1` [compound 640], for which the logP under setting [2] is 2.73*.
Take `CC(=O)c1ccc(Nc2ncc(C(F)(F)F)c(NC3CC3)n2)cc1` [compound 656]: the logP under setting [8] is given as 2.8** and the logP under setting [2] is listed as 2.7*;.
Turning to `FC(F)(F)c1cnc(Cl)nc1NCC1CC1` [2-chloro-N-(cyclopropylmethyl)-5-trifluoromethylpyrimidine-4-amine], the chromatographic logP is 3.4.
As to `CCOC(=O)Nc1ccc(Nc2ncc(Br)c(NCC3CC3)n2)cc1O` [compound 489], the logP under setting [6] was 1.75*.
Same read-out and setting: the result for `CCOC(=O)Cc1ccc(Nc2ncc(Br)c(NCC3CC3)n2)cc1` [compound 486] reads 2.18*; that for `O=CNc1ccc(Nc2ncc(Cl)c(NCC3CC3)n2)cc1` [compound 544], 1.17*.
